pIC50: −log10 of the molar value. Entries after “also recorded” stand apart in the source; their conditions may differ. Each block holds one compound with its values, some of them ahead of it.
Assays:
B16F10 cells = test: Apoptosis by flow cytometry and Annexin V live-cell imaging, B16F10; type: cell-based; conditions: B16F10, 10 μM
Procedure: (§1) FIG. 2: Melanoma cells B16F10 are less sensitive to GSK126. (A) Cell scratch assay, showing the effect of GSK126 (10 μM) treatment on the migration capability of B16F10 cells, with 3 replicates per group; (B-C) the effect of GSK126 (10, 13, and 15 μM) on the apoptosis rate of B16F10 cells, as examined by flow cytometry […] and Annexin V staining assay. 3 replicates were established for each group, with *P<0.05, **P<0.01, and ***P<0.001, and ns for no statistical difference.
(§2) Next, to further validate the effect of GSK126 at 10 μM on melanoma cells B16F10, scratch assay was conducted. […] In addition, to assess the anti-survival effect of GSK126, B16F10 cells were treated by GSK126 at different concentrations for different durations, and the apoptosis rate of the cells was analyzed by flow cytometry (section B of FIG. 2) and live-cell fluorescence imaging (section C of FIG. 2).

Daudi cells = test: UPLC-MS/MS metabolomics of Daudi cells; type: cell-based; conditions: GSK126 6 μM vs control
Procedure: (§3) FIG. 5: Effect of GSK126 on the metabolic profile of Daudi cells. (A) Orthogonal partial least squares discriminant analysis (OPLS-DA) score plot based on metabolic analysis (6 replicates per group). C: control, G: GSK126 treatment. (B) Score plot for validating the OPLS-DA model (R2Y=0.973; Q2Y=0.931). (C) The number of metabolites of each category in metabolomics. […] (E) Viability of Daudi cells after palmitic acid treatment was analyzed by CCK-8 kit (3 replicates per group). 3-6 replicates per group, *P<0.05, **P<0.01.
(§4) FIG. 6: The combination with an SCD1 inhibitor enhances the inhibitory effect of GSK126 on cancer cells. (A) Differential metabolites between DMSO and GSK126-treated Daudi cells. […] Metabolite categories are shown in different colors. […] (C) The mRNA levels of lipid metabolism genes in GSK126-treated Daudi cells were detected by RT-qPCR (3 replicates per group). (D) Viability of GSK126 and palmitinic acid-treated Daudi cells was analyzed by CCK-8 assay kit (5 replicates per group). (E) Viability of GSK126 and stearic acid-treated Daudi cells was analyzed by CCK-8 assay kit (5 replicates per group). (F) Proliferation curves of B16F10 and SMMC7721 cells treated with GSK126 and MF-438 were monitored by IncuCyte S3 (5 replicates per group). (G) CCK-8 assay kit detects the viability of B16F10 and SMMC7721 cells treated with GSK126 and MF-438. CI is calculated by CompuSyn software. CI<0.9 indicates synergism and CI>1.1 indicates antagonism. (H) Schematic diagram of mouse tumor-bearing experiment. (I-J) Tumor weight (I) and tumor growth curve (J) of the mice loaded with B16F10 cells. The tumor volume was measured with a vernier caliper every 2 days. Tumor volume=(length*width*width)/2. (K) Representative tumor pictures of all experimental groups. 3-8 replicates per group, *P<0.05, **P<0.01, ***P<0.001.
In order to verify that the lipid metabolism of cancer cells is the key factor affecting the sensitivity of the EZH2 inhibitor, UPLC-MS/MS system was used to analyze the metabolomics of the Daudi cells treated with GSK126 at a concentration of 6 μM (close to the IC50 value). The differences in the metabolome between the cells in the control group and the GSK126 treatment group were obvious by OPLS-DA analysis (sections A and B of FIG. 5). There were 71 metabolites with significant changes and VIP values greater than 1.0.

[1] = system: Burkitt lymphoma cells (Daudi); test: CCK-8 cell proliferation/viability assay, Daudi; type: cell-based; conditions: for cell viability inhibited by GSK126, on fatty acid supplementation: with GSK126, CCK-8
Procedure: (§5) FIG. 1: Hematological tumors are more sensitive to GSK126 than solid tumors. (A) Proliferation of B16F10, Huh7 and SMMC7721 cells in GSK126 (10-20 μM) treatment group was monitored by Incucyte S3, with 6 replicates per group; (B) viability of Daudi and THP-1 cells after GSK126 (200 nM-24 μM) treatment for 24 h and 48 h was measured by CCK-8 assay, with 5 replicates per group; (C) western blot analysis (WB) of B16F10 cells 48 h after the treatment without or with GSK126 (6 μM, 12 μM), with H3 used as an internal reference for histone. 5 to 6 replicates were established for each group, with *P<0.05, **P<0.01, and ***P<0.001, and ns for no statistical difference.
as §3, §4

melanoma B16F10 cells [2] = test: IncuCyte S3 live-cell proliferation (confluence), B16F10; type: cell-based
Procedure: as §5
(§6) In order to accurately assess the responsiveness of solid tumor cells to EZH2 inhibitors, the effects of GSK126 at different concentrations on the proliferation of melanoma B16F10 cells and hepatoma Huh7 and SMMC-7721 cells were initially detected by IncuCyte S3×Live-Cell Analysis System.
(§7) • (1) Cells in the logarithmic growth phase were digested with 0.25% trypsin and the digestion was terminated by the addition of serum-containing medium. It was then centrifuged at 200 g for 5 min; • (2) The single cell suspension at the corresponding concentration was prepared by a microscopic counting method, and then added into a 96-well culture plate, so that the volume of the culture medium in each well was 150 μL (about 5000 cells). […]

[3] = system: ACLY, FASN, and SCD in SMMC7721; test: RT-qPCR and WB of fatty acid synthesis genes, SMMC7721; type: cell-based
From the text: (§8) FIG. 4: Lipid accumulation in mice after GSK126 treatment. (A) H & E and oil red O staining of the liver tissue sections of the tumor-bearing mice in the control group and the GSK126 treatment group, in which the statistical results of negative or positive staining area were shown on the right (3 replicates per group); (B) TG level in the serum of the tumor-bearing mice in the control group and the GSK126 treatment group (5 replicates per group); (C-D) mRNA (C) and protein (D) levels of the genes related to fatty acid anabolism in the GSK126-treated HCC cells, as detected by RT-qPCR and WB (3 replicates per group). 3 to 5 replicates were established for each group, with *P<0.05, **P<0.01.
(§9) C57BL/6 mice of 6-8 weeks old were subcutaneously implanted with B16F10 cells and treated with GSK126 again. […] Therefore, the expression of the fatty acid synthesis-related genes in GSK126-treated hepatocellular carcinoma (HCC) cell lines SMMC7721 and Huh7 was further detected.

hepatoma Huh7 cells = test: IncuCyte S3 live-cell proliferation (confluence), Huh7; type: cell-based
Procedure: as §5, §6, §7

[4] = system: hematological tumor cells THP-1; test: CCK-8 cell proliferation/viability assay, THP-1; type: cell-based; conditions: 10 μM, 24 h and 48 h
Procedure: as §5

[5] = system: H3K27me3 level in B16F10 cells; test: Western blot of H3K27me3 in B16F10 cells; type: cell-based; conditions: 6 μM, 48 h, WB
Procedure: as §5

[6] = system: hematologic cancer cell lines; conditions: most hematologic cancer cell lines; many studies; read-out: IC50 (half-maximal inhibitory concentration); cited from earlier work
melanoma cells B16F10 = test: Cell scratch (migration) assay, B16F10; type: cell-based; conditions: B16F10, 10 μM, 36 h of culture, vs control group
Procedure: as §1, §2

[7] = system: ACLY, FASN, and SCD in Huh7; test: RT-qPCR and WB of fatty acid synthesis genes, Huh7; type: cell-based
From the text: as §8, §9

[8] = system: ELOVL2, SCD1, and FASN in Daudi cells; test: RT-qPCR of lipid metabolism genes in Daudi cells; type: cell-based; conditions: mRNA
Procedure: as §4, with “***P<0.001. […]” for “***P<0.001.”

melanoma B16F10 cells [9] = test: Metabolite (fatty acid) levels in GSK126-treated B16F10 cells; type: cell-based; conditions: GSK126 group
From the text: FIG. 3: GSK126 results in significant elevated levels of 6 fatty acids in melanoma B16F10 cells.
Among the metabolites with significant changes, the levels of many fatty acids increased in the GSK126 group. There are five polyunsaturated fatty acids, including α-linolenic acid, DHA, EPA, linoleic acid, and γ-linolenic acid) and one monounsaturated fatty acid, i.e., 10Z-heptadienoic acid (FIG. 3).

hepatoma SMMC-7721 cells = test: IncuCyte S3 live-cell proliferation (confluence), SMMC-7721; type: cell-based
Procedure: as §5, §6, §7

[10] = GSK126 at different concentrations (10-20 μM)

pIC50 ([1]; Daudi cells): ~5.22
SMILES: CC[C@H](C)n1cc(C)c2c(C(=O)NCc3c(C)cc(C)[nH]c3=O)cc(-c3ccc(N4CCNCC4)nc3)cc21 [GSK126]
induction of apoptosis (B16F10 cells): limited capability to induce apoptosis | down-regulated metabolites (Daudi cells): 6 | fatty acids (incl. ricinoleic acid, DPA n-6) (Daudi cells): four fatty acids decreased | metabolites with significant changes and VIP values greater than 1.0 (Daudi cells): 71 | up-regulated metabolites (Daudi cells): 65 | sensitivity of Daudi cells ([1]; 1 μM, CCK-8): very sensitive | proliferation of Daudi cells ([1]; 10 μM, 24 h and 48 h, CCK-8): significantly inhibited | cell proliferation (melanoma B16F10 cells [2]; GSK126 10 μM): less effective; also recorded: could not be effectively inhibited | cell proliferation (melanoma B16F10 cells [2]; [10]): inhibited cell proliferation in a dose-dependent manner | mRNA and protein levels of ACLY, FASN, and SCD [3]: significantly elevated | cell proliferation (hepatoma Huh7 cells; GSK126 10 μM): less effective | cell proliferation (hepatoma Huh7 cells; [10]): inhibited cell proliferation in a dose-dependent manner | proliferation of THP-1 cells [4]: significantly inhibited | H3K27me3 level [5]: significantly down-regulated | pIC50 [6]: > 6.00 | cell migration (melanoma cells B16F10): did not effectively inhibit cell migration | mRNA and protein levels of ACLY, FASN, and SCD [7]: significantly elevated | expression of ELOVL2, SCD1, and FASN [8]: did not upregulate | levels of fatty acids (five polyunsaturated, one monounsaturated) (melanoma B16F10 cells [9]): increased | cell proliferation (hepatoma SMMC-7721 cells; GSK126 10 μM): less effective | cell proliferation (hepatoma SMMC-7721 cells; [10]): inhibited cell proliferation in a dose-dependent manner

SMILES: CCCCCCCCCCCCCCCC(=O)O [palmitic acid]
cell proliferation (viability) on fatty acid addition ([1]; Daudi cells, CCK-8): moderately promoted | cell viability inhibited by GSK126, on fatty acid supplementation ([1]; Daudi cells): recovered the cell viability inhibited by GSK126 to varying degrees

SMILES: CCCCCCCCCCCCCCCCCC(=O)O [stearic acid]
cell proliferation (viability) on fatty acid addition ([1]; Daudi cells, CCK-8): moderately promoted | cell viability inhibited by GSK126, on fatty acid supplementation ([1]; Daudi cells): recovered the cell viability inhibited by GSK126 to varying degrees

From US20240325385A1, “ANTI-TUMOR PHARMACEUTICAL COMPOSITION COMPRISING EZH2 INHIBITOR AND SCD1 INHIBITOR AND USE THEREOF” (PEKING UNIVERSITY THIRD HOSPITAL, priority 2021, published 2024)
